Measured values from ChEMBL document CHEMBL3507680, “University of Dundee, Gates Library screen for HepG2 cell viability”.

assay: Human HepG2 cell viability assay in 384 well format; type: toxicity, cell-based; parameters: dose 125 nL, time 70.5 hour; cytotoxicity at 70.5 h: concentration not given beside the values; settings: HepG2 cells, read-out: Inhibition

SMILES	cytotoxicity at 70.5 h [%]
Cc1cccc(CN2CCC(c3nnsc3S(C)(=O)=O)CC2)c1	-5.38
CS(=O)(=O)c1snnc1C1CCN(Cc2cccc(O)c2)CC1	-7.7
Cc1cc(C)c2cc(CNC(C)C)c3nn(C)c(=O)n3c2c1	-1.75
Cc1cc(C)c2cc(CNCc3cccnc3)c3nn(C)c(=O)n3c2c1	-0.562
CN(C)Cc1ccnc(C2CCCN2Cc2ccc(F)cn2)n1 (centres undefined)	17.2
Cc1ocnc1C(=O)N1CC[C@@H](O)[C@@H](O)[C@H](N2CCC(F)(F)CC2)C1	-3.42
COCc1ccc(C(=O)N2CC[C@H](O)[C@@H](n3ccnc3)CC2)cc1	-6.05
NC(=O)C1(CCCc2ccccn2)CCCN(c2ncccn2)C1 (centres undefined)	-2.53
COc1ccc(S(=O)(=O)N2CCC(O)(CN(C)C)C2)cc1 (centres undefined)	-4.76
CN1CCCC(c2cccc(CCC(=O)NCC3(C)COC3)n2)C1 (centres undefined)	-1.36
CC(C)N1CCC(Cc2cncc(-c3cccc(C(=O)O)c3)n2)CC1	10.8
Cc1cc(-c2cnn(CCNC(=O)c3cc[nH]n3)c2C2CC2)on1	-0.801
Cn1cc(C(=O)N2CCCC(c3cnccn3)C2)cn1 (centres undefined)	-4.7
Cc1cc(-c2cc(F)ccc2C(=O)O)nc(C2CCCCN2C(C)C)n1 (centres undefined)	-5.96
CN(C)CC1(O)CCN(S(=O)(=O)c2ccc(Cl)cc2)C1 (centres undefined)	3.29
CNc1cccc(C2CCCN(C(=O)c3cscn3)C2)n1 (centres undefined)	-8.52
Cc1nc(C(=O)N2CCCC(c3ccc4sc(N)nc4n3)C2)co1 (centres undefined)	-7.73
COc1ccc(-c2cc(C3CCN(C(C)=O)CC3)ccn2)cc1	-7.99
COc1cccc(CNC(=O)c2ccccc2-n2cnc(CN)c2)c1	17
CNC(=O)c1ccc(C2CN(C(=O)c3coc(C)n3)CCO2)nc1 (centres undefined)	-11.4
Cc1csc(Nc2nccnc2C2CCCN2CC(N)=O)n1 (centres undefined)	11
CN(C)S(=O)(=O)N1CCCC(c2cccc(Cc3ccccc3F)n2)C1 (centres undefined)	11.4
CC(=O)N1CCCC1c1nccnc1Nc1ncccn1 (centres undefined)	15.9
Cc1csc(Nc2nccnc2C2CCCN2S(C)(=O)=O)n1 (centres undefined)	-12.8

SMILES	cytotoxicity at 70.5 h [%]
Cc1ccc(C(=O)N2CCCCC2c2[nH]ncc2S(C)(=O)=O)cn1 (centres undefined)	-2.26
COCCC(=O)N1CCCC1c1csc(Nc2ncccn2)n1 (centres undefined)	-7.18
Cn1ccc(C(=O)N2CCCC(Cc3cnc4ccccc4c3)C2)n1 (centres undefined)	-1.48
Cc1noc(C2CCCN2C(=O)C2CCC2)n1 (centres undefined)	-11.5
Cc1c[nH]nc1C1CCCCN1C(=O)CNS(C)(=O)=O (centres undefined)	9.79
CC(=O)N1CCC(c2n[nH]c3nccnc23)CC1	-7.48
CNc1cncc(C2CCCN2Cc2ccnc(C)n2)n1 (centres undefined)	-0.507
Cc1ccsc1C(=O)N1CCCC(c2[nH]ncc2S(C)(=O)=O)C1 (centres undefined)	-6.4
C[C@]1(O)CCN(Cc2c[nH]cn2)C[C@@H]1Oc1cccc(F)c1	-7.83
Cc1cncc(C2CCCN(C(=O)c3cnco3)C2)n1 (centres undefined)	-3.92
CC(C)c1nnc(CN2CCc3ccc(S(N)(=O)=O)cc32)o1	-0.0777
Cc1nc(C(C)C)sc1C(C)N(C)C(=O)c1ccc(=O)n(C)c1 (centres undefined)	1.52
Cc1c(NCCO)cccc1OC1CCCC1	-2.5
N#CC1COCCN1C(=O)c1ccc2[nH]cnc2c1 (centres undefined)	-1.24
COc1cc(NC2CCCN(c3ncccn3)C2)cc(OC)c1 (centres undefined)	3.49
COc1c(CNCC(=O)N2CCN(C)CC2)c(C(C)C)nn1C	-5.29
O=C(CCn1cncn1)NCCOc1cccc(Cl)c1	-2.18
CC(C(=O)NCCc1ccc2c(c1)OCCO2)n1cncn1 (centres undefined)	-14.6
Cc1ccc(C(=O)NC2CCCN(S(C)(=O)=O)C2)c(=O)[nH]1 (centres undefined)	-2.62
Cc1ccc(C(=O)NC2CCCN(CC(N)=O)C2)c(=O)[nH]1 (centres undefined)	-7.85
Cc1nn(C)c(C)c1CC(=O)NCC1(C(N)=O)CCOCC1	22.8
Cc1nc(C)n(CC2CCCN2c2ncnc3sccc23)n1 (centres undefined)	-7.8
CCc1ccsc1C(=O)NC(C#N)CC (centres undefined)	-5.37
Cc1sc2ncnc(N3CCCC3Cn3cccn3)c2c1C (centres undefined)	-11.4

SMILES	cytotoxicity at 70.5 h [%]
CCNC(=O)CN(CC)C(=O)c1csc(Cc2ccccc2F)n1	-13.1
Cc1ncsc1COC(=O)c1cccc2c1OCCO2	-5.64
O=C(CCn1cccn1)NCCOc1ncc(Cl)cc1Cl	-10.6
Cc1cc(C)c(C#N)c(NCCn2cnnc2C(C)C)n1	0.173
CS(=O)(=O)N1CCC(CNc2cc(Cl)ccc2C#N)CC1	-6.86
N#CC1COCCN1C(=O)c1cccc2cc[nH]c12 (centres undefined)	-13.5
CCN(C)Cc1cccc(CNC(=O)NCCc2ccccn2)c1	-3.19
Cc1oc(-c2ccco2)nc1CN1CCc2cncnc2C1	-1.22
CS(=O)(=O)NCc1cccc(COC2CCCCC2)c1	-3.13
COCc1ccccc1C(=O)OCc1noc(C)n1	-15.9
OCCCNc1cccc(COC2CCCCC2)c1	21
CC(NCc1ccnc(OC2CCC2)c1)c1cnn(C)c1 (centres undefined)	-15.1
CCn1ccnc1CN1CCCC1c1c(C)nn(C)c1OC (centres undefined)	-4.2
N#Cc1ccc(CN2CCc3sccc3C2)c(F)c1	-1.03
COc1ccc(Cl)cc1CS(=O)(=O)Cc1nc(C)no1	15.2
O=C(CN1CCCS1(=O)=O)Nc1ccc(OC(F)F)cc1	-9.68
COc1ccc(Cl)cc1CS(=O)(=O)Cc1cc(C)on1	-5.88
Cc1ccc(C(=O)NCCCn2cccn2)c(=O)[nH]1	-0.293
Cc1ccc(CNC(=O)Nc2nnc(C(C)C)s2)n1C	-4.19
Cc1ccc(CNC(=O)Nc2nncs2)n1C	-7.51
CC(C)(C)c1ccc(S(=O)(=O)CCNC(=O)c2cnccn2)cc1	10.2
COCCS(=O)(=O)N(Cc1cscn1)c1ccccc1	-5.03
Cc1nn(C)c(Cl)c1C1CCCN1Cc1nnc(C2CC2)n1C (centres undefined)	-0.0718
CN(C)S(=O)(=O)N(Cc1cscn1)c1ccccc1	12.4

SMILES	cytotoxicity at 70.5 h [%]
Cc1ccc(C(=O)OC(C)Cn2cccn2)c(=O)[nH]1 (centres undefined)	-0.535
O=C(CN1CCCS1(=O)=O)Nc1cccc(COC2CCCCC2)c1	-2.5
COc1cccc2c1CCC2NC(=O)NCc1csc(N(C)C)n1 (centres undefined)	9.68
COc1ccccc1C(C#N)NC(=O)c1cccc2c1oc(=O)n2C (centres undefined)	-6.2
COC(C)c1noc(CN(C)c2ncc(Br)cn2)n1 (centres undefined)	-3.46
COc1c(C2CCCN2Cc2nnc(C3CC3)o2)c(C)nn1C (centres undefined)	-4.73
CN(CCc1ccncc1)C(=O)c1sccc1OC(F)F	-10.6
COCCNc1ccc(CNCc2cnc3nc(C)cc(C)n23)cc1	-9.55
Cc1cc(C)n2c(CNCCNc3ccccc3)cnc2n1	-1.23
CCn1cnnc1CNS(=O)(=O)N1CCCC1c1ccco1 (centres undefined)	-9.43
CN(Cc1ccc(F)c(F)c1)Cc1cc2c(cc1Br)OCCO2	-8.74
Cc1ccc(CN(C(=O)NCC2CCS(=O)(=O)C2)C2CC2)o1 (centres undefined)	-7.11
CC(C)c1nc(CSc2nnc(-c3cccs3)n2CC(N)=O)no1	-9.43
CC(C)c1cc(NC(=O)Cn2ccc(=O)c3ccccc32)[nH]n1	5.53
Cc1cc(NC(=O)Cn2ccc(=O)c3ccccc32)[nH]n1	-3.31
CC(C)CC(=O)N1Cc2ccccc2CC1C(=O)Nc1nncs1 (centres undefined)	1.18
CCc1nnc(CN2CC(n3cccn3)C2)o1	-4.74
CN(Cc1nc2ccccc2n1C)C(=O)CCc1cscn1	-1.17
CCOC(=O)C1(O)CCN(C(=O)Nc2ccc(CC)cc2)CC1	-4.17
NS(=O)(=O)c1ccc(N2CCN(CCCc3cn[nH]c3)CC2)cc1	15.8
COCc1cccc(C(=O)N2CCCN(C(=O)OCC(C)C)CC2)c1	-5.18
CCc1ccc(C2CCCN2C(=O)CNC(=O)CCC(C)C)o1 (centres undefined)	-1.81
CCc1ccc(C2CCCN2C(=O)NCC(=O)NCC(C)C)o1 (centres undefined)	21.4
Cc1cc(NC(=O)N2CCOCC2)nn1-c1cccc(Cl)c1	-2.25

SMILES	cytotoxicity at 70.5 h [%]
CCc1ncc2c(n1)CN(Cc1cn3ccsc3n1)CC2	9.84
CCCC(=O)N1CCCN(C(=O)Nc2ccc(C)s2)CC1	-4.08
O=C(c1ccc(OCC2CC2)cc1)N1CCOCC1c1ncon1 (centres undefined)	1.72
Cn1c(NCC(=O)N2CCCC2)c(C#N)c(=O)n(C)c1=O	12.4
O=C(Cn1cccnc1=O)NCC1Cc2ccccc2O1 (centres undefined)	-9.82
CC1CN(C(=O)NCc2cnn(-c3ccc(F)cc3F)c2)CCO1 (centres undefined)	-11.2
CCNC(=O)NCc1cnn(-c2ccc(F)cc2F)c1	-10.2
Cc1ccsc1C(Cc1ccccc1)NC(=O)CNC(=O)C1CC1 (centres undefined)	-3.91
CCNC(=O)CCC(=O)NC(Cc1ccccc1)c1sccc1C (centres undefined)	-7.03
CC(=O)c1ccc(C(=O)Nc2ccnc(N(C)C)n2)cc1	6.64
CSCC(=O)Nc1ncc(I)cc1C	11.6
COc1cccc(CC(=O)N2CCN(c3cccc(C)c3)C(C)C2)c1 (centres undefined)	0.115
Clc1ccc(C2(NCc3noc(C4CC4)n3)CCC2)cc1	-5.74
O=C1C(N2CCOC3(CCCC3)C2)CCN1C1CC1 (centres undefined)	-1.76
COc1ccc(C2(NCc3noc(C4CC4)n3)CCOCC2)cc1	-12.1
CC(C)CC(NC(=O)c1ccc[nH]1)C(=O)N1CCC(CO)CC1 (centres undefined)	-11.2
CC(C)CC(C)NCc1cccnc1N1CCOCC1 (centres undefined)	19.8
O=C(c1ccc(-n2cc(Br)cn2)cc1)N1CCN(c2cnccn2)CC1	-10
Cc1ccnn1-c1ccc(C(=O)N2CCN(c3cnccn3)CC2)cc1	-0.832
O=C(c1ccc(-n2ccnc2)cc1)N1CCN(c2cnccn2)CC1	2.67
CC(SCC(=O)NC(N)=O)c1ccc(Cl)cc1 (centres undefined)	-9.52
Cn1nc(C2CCCN(Cc3ccccc3)C2)c2nccnc21 (centres undefined)	2.89
Clc1ccc(-c2ccc(C3CNCCO3)nc2)cc1 (centres undefined)	-0.52
